# Experimental data published in US9688637B2, “3-amidobenzamides and uses thereof for increasing cellular levels of A3G and other A3 family members” (Northwestern University, priority 2014, dated 2017).
# Assays:
# A3G = A3G (Homo sapiens, UniProt Q9HC16); conditions: described by others (ref. 39); cited from earlier work
# 293T cells = experiment: Cellular cytotoxicity by counting cells after 48 hrs with compound vs DMSO; format: cell-based; conditions: for Cytotoxicity: Cell Proliferation Blocked at: concentration at which proliferation was blocked, 48 hrs
# Description: (§1) To screen compounds that can boost A3G levels, 293T cells (25,000 cells per well in 96-well plate) stably expressing A3G-Luc protein or A3G-Luc/Vif proteins were plated. After 24 hrs post plating culture medium was replaced with 100 μl of new medium containing either DMSO as a control or various compounds (10 μM concentration). After 48 hrs of incubation with compounds culture medium was removed from each well and replaced with 100 μl of Britelite Plus luciferase assay substrate (PerkinElmer). Following 5 min. of incubation at room temperature, 75 μl of each cell lysate was transferred to a 96-well OptiPlate 96 (PerkinElmer) and luminescence was measured in a VICTOR X2 Multilabel Reader (PerkinElmer). Relative activity of compounds for their boosting capability A3G-Luc activity was calculated by plotting DMSO-treated A3G-Luc or A3G-Luc/Vif cells as 100%. Cellular cytotoxicity was measured by counting number of cells after 48 hrs of incubation with compounds compared to DMSO treated cells.
# A3G-Luc/Vif [1] = experiment: A3G-Luc/Vif luciferase screen in 293T cells stably co-expressing A3G-Luc and HIV-1 Vif; format: cell-based, human; conditions: 30 μM, 48 hrs, DMSO = 100%
# A3G-Luc = A3G-Luc luciferase screen in 293T cells stably expressing A3G-Luc; format: cell-based, human; conditions: 48 hrs, DMSO = 100%
# Excerpt: This background led to construction of cell lines to use in a search for compounds that might boost levels of A3s in the HIV target cells of the majority of HIV-infected persons who are non-controllers. The goal is to test a strategy of using such a booster in acute/early infection to prevent the hypothesized decrease of A3G and related A3s in an effort to increase “control” in persons lacking HLA B57/27-associated control. […] 293T and TZM-bl cells were maintained in DMEM (containing 4.5 g/liter glucose, L-glutamine, and sodium pyruvate) medium plus 10% fetal bovine serum, 50 IU/ml penicillin, and 50 μg/ml streptomycin at 37° C. and 5% CO2 throughout the experiments. […]. After collecting viral supernatant, 293T cells were infected with viral particles harboring the A3G-Luc expressing vector and selected with puromycin (0.75 μg/ml) for three days. Ten single cell clones of stable cells were isolated and tested for expression of A3G-Luc protein by both immunoblotting using antibody against A3G and measuring luciferase activity. Expressions in cell lines used for subsequent experiments are depicted in FIG. 2, upper panel. The A3G-Luc fusion protein was sensitive to Vif-mediated degradation (FIG. 3). Similar cells lines stably expressing A3F were constructed with the same methods (not shown).
# as §1, with “After 24 hrs post plating culture medium was replaced with 100 μl of new medium containing either DMSO as a control or various compounds (10 μM concentration).” left out
# BC-1 = BC-1 primary effusion lymphoma cell proliferation; format: cell-based; conditions: primary effusion lymphoma (PEL) cell line (FIG. 10)
# Excerpt: FIG. 10. A primary effusion lymphoma (PEL) cell line (BC-1, infected with both Kaposi's sarcoma herpesvirus and Epstein Barr Virus) is also killed by the listed compounds.
# A3G-Luc/Vif [2] = experiment: A3G-Luc/Vif luciferase screen in 293T cells stably co-expressing A3G-Luc and HIV-1 Vif; format: cell-based, human; conditions: 10 μM, 48 hrs, DMSO = 100%
# Description: FIG. 6. 293T cell clone #6 stably co-expressing A3G-Luciferase fusion protein together with HIV-1 Vif was used. Small molecule compounds were tested for their effects on stability of A3G and inhibition of Vif activity against A3G by measuring luciferase activity, relative to treatment with control DMSO only. The relative % luciferase activity was higher after treatment with NU compounds than DMSO.
# […]. After sorting, expression of both A3G-Luc and Vif was confirmed by immunoblotting using antibody against both A3G and Vif.
# as §1
# Chain of A3G (Q9HC16 whole entry): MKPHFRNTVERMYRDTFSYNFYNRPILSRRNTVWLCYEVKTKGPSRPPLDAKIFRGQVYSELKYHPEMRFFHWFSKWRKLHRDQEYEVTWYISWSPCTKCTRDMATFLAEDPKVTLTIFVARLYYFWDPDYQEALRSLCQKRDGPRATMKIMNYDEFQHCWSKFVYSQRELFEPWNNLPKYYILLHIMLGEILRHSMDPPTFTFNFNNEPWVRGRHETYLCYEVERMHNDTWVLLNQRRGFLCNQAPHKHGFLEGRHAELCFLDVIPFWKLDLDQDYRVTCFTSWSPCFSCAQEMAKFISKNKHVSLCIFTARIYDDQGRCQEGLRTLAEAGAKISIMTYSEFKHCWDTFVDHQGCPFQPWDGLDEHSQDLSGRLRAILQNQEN
smiles,measurement,setting,value
"COc1ccc(C(=O)Nc2cc(OC)c(OC)c(OC)c2)cc1NC(=O)C(C)Br (stereo not drawn) [IMB-26, reference compound]",binding to A3G and degradation of A3G by Vif,A3G,directly bind to A3G and prevent its degradation by Vif
same,toxicity to 293T cells,293T cells,toxic
COc1ccc(NC(=O)c2ccc(OC)c(NC(=O)C(C)C)c2)cc1 [NU-54],Vif-A3G-Luc Activity (% of RLUs compared to DMSO treated control),A3G-Luc/Vif [1],116%
same,A3G-Luc Activity (% of Relative Light Units compared to DMSO treated control),A3G-Luc; 30 μM,137%
COc1ccc(C(=O)Nc2cc(OC)c(OC)c(OC)c2)cc1NC(C)=O [NU-58],Vif-A3G-Luc Activity (% of RLUs compared to DMSO treated control),A3G-Luc/Vif [1],93%
same,A3G-Luc Activity (% of Relative Light Units compared to DMSO treated control),A3G-Luc; 30 μM,123%
CCC(=O)Nc1cc(C(=O)Nc2cc(OC)c(OC)c(OC)c2)ccc1OC [NU-57],Vif-A3G-Luc Activity (% of RLUs compared to DMSO treated control),A3G-Luc/Vif [1],74%
same,A3G-Luc Activity (% of Relative Light Units compared to DMSO treated control),A3G-Luc; 30 μM,87%
COc1ccc(C(=O)Nc2cc(OC)c(OC)c(OC)c2)cc1NC(=O)C(C)C [NU-56],Vif-A3G-Luc Activity (% of RLUs compared to DMSO treated control),A3G-Luc/Vif [1],93%
same,A3G-Luc Activity (% of Relative Light Units compared to DMSO treated control),A3G-Luc; 30 μM,114%
CC(C)C(=O)Nc1cc(C(=O)Nc2ccc(Cl)c(Cl)c2)ccc1OCCOCCNC(=O)OC(C)(C)C [NU-125],A3G-Luc Activity (% of Relative Light Units compared to DMSO treated control),A3G-Luc; 10 μM,25%
same,Cytotoxicity: Cell Proliferation Blocked at,293T cells,Cell Proliferation Blocked at 10 μM
CC(C)(C)OC(=O)NCCOCCOc1ccc(C(=O)Nc2ccc(Cl)c(Cl)c2)cc1N [NU-124],A3G-Luc Activity (% of Relative Light Units compared to DMSO treated control),A3G-Luc; 10 μM,25%
same,Cytotoxicity: Cell Proliferation Blocked at,293T cells,Cell Proliferation Blocked at 10 μM
COc1ccc(C(=O)Nc2ccc(Cl)c(Cl)c2)cc1N(C)C(=O)C(C)C [NU-611],BC-1 cell proliferation,BC-1,inhibit BC-1 cell proliferation
same,Vif-A3G-Luc Activity (% of RLUs compared to DMSO treated control),A3G-Luc/Vif [2],75%
same,A3G-Luc Activity (% of Relative Light Units compared to DMSO treated control),A3G-Luc; 10 μM,67%
CC(C)(C)OC(=O)NCCOCCOc1ccc(C(=O)Nc2ccc(Cl)c(Cl)c2)cc1NC(=O)CC1CC1 [NU-126],A3G-Luc Activity (% of Relative Light Units compared to DMSO treated control),A3G-Luc; 10 μM,4.8%
same,Cytotoxicity: Cell Proliferation Blocked at,293T cells,Cell Proliferation Blocked at 10 μM
CC(C)C(=O)Nc1cc(C(=O)Nc2ccc(Cl)c(Cl)c2)ccc1OCCOCCNC(=O)CCCCC1SC[C@@H]2NC(=O)N[C@H]12 (stereo partly drawn) [NU-127],A3G-Luc Activity (% of Relative Light Units compared to DMSO treated control),A3G-Luc; 10 μM,68%
same,Cytotoxicity: Cell Proliferation Blocked at,293T cells,Cell Proliferation Blocked at 10 μM
